# Source: patent US20150218141A1, “SUBSTITUTED CARBAMATE COMPOUNDS” (HOFFMANN-LA ROCHE INC, priority 2012, published 2015)
# Structures can show the parent of a compound that is named as a salt.
# Target: T1, hTRPA1 (Homo sapiens, UniProt O75762)
# T1 construct: host or cells: CHO-K1 Tet-On, Clone 20 (Chinese Hamster Ovary cells, inducible expression)
# Test: IC50 determination, dose response calcium flux (FLIPR) assay, ChanTest hTRPA1-CHO stably transfected cell line
# Format: cell-based
# Details: CHO-K1 Tet-On hTRPA1 cells, 30' preincubation, agonist cinnamaldehyde final 100 uM
# Method: IC50 Determination of Exemplified Compounds Dose Response Assay: ChanTest hTRPA1-CHO Stably Transfected Cell Line
# CHO-K1 Tet-On_HOMSA_TRPA1_Clone—20
# Growth Media for CHO-K1 Tet-On_HOMSA_TRPA1_Clone—20 • Ham's F-12 with 10% tetracycline-free FBS • 1× penicillin-streptomycin • 1× glutamax • 0.01 mg/ml Blasticidin • 0.40 mg/ml Zeocin • The cell line doubling rate was ˜15 hours. […] Experiments were run at 24 hours post induction.
# Plating Conditions CHOK1/TRPA1 Cells: • Harvested cells with 0.025% trypsin/EDTA. • Resuspended cells in growth media without selection antibiotics. • Measured cell density and diluted to 2.4×10^5 cells/ml in media containing 1 ug/ml Doxycycline Plate 25 ul/well into 384 well black/clear tissue culture-treated plates. • Incubated overnight at 37° C.
# Reagents: • Replacement Buffer: Hank's Balanced Salt Solution, 20 mM HEPES along with 0.005% BSA and 2× Probenecid • Dye Loading Buffer: Cal-3 NW Calcium dye was prepared by dissolving the contents of one vial with […] Hank's Balanced Salt Solution containing 20 mM HEPES. • Control compounds for CHOK1/TRPA1 cells: AP-18, stock 10 mM, prepare 3.5× compound dilution in a Compound Buffer (HBSS/20 mM HEPES/0.005% BSA)—final concentration 10 uM.
# Preparation of Cinnamaldehyde (Agonist Addition):
# • Specific gravity=1.046 gm/cc • 1.32 gm/1.046 gm/cc=1.26 ml of stock • Add 1.74 ml DMSO=3.3 M stock • Working solution 4.5× (final 100 uM in Compound Buffer: HBSS/20 mM HEPES/0.005% BSA)
# Compounds dilutions were prepared from 5 or 10 mM stock (100% DMSO): • Adjustments of volumes and concentrations were made at time of titration to reflect desired final assay concentrations. • Compounds were tested at either 20 μM three folds dilution 11 steps out or 30 μM two folds dilution 11 steps out. • 3 μl of diluted compound were transferred into Weidmann 384-well plate in duplicates side-by-side.
# Compound plates were resuspended with 100 ul of HBSS/20 mM HEPES/0.005% BSA buffer (Compound Buffer):
# Growth media was removed from the cell plates (20 ul) and 20 ul of the Replacement Buffer was added followed by addition of 25 ul of diluted dye. All three steps were performed using a Plate Washer BioTek 407. The plates were then incubated for 30′ at RT.
# After incubation, both the cell and compound plates were brought to the FLIPR and 20 ul of the diluted compounds/antagonist/bk were transferred to the cell plates by the FLIPR. Plates were then incubated for 30′ at room temperature. After 30′ incubation, plates were returned to the FLIPR and 20 ul of 4.5× Cinnamaldehyde was added to the cell plates. During the compound addition as well as agonist addition, fluorescence readings were taken simultaneously from all 384 wells of the cell plate every 1.5 seconds. Five readings were taken to establish a stable baseline, then 20 ul of sample was rapidly (30 ul/sec) and simultaneously added to each well of the cell plate. The fluorescence was continuously monitored before, during and after sample/agonist addition for a total elapsed time of 100 seconds (compound addition) and 120 seconds (agonist addition). Responses (increase in peak fluorescence) in each well following agonist addition was determined. The initial fluorescence reading from each well, prior to ligand stimulation, was used a zero baseline value for the data from that well.
# T1 sequence (O75762 whole entry): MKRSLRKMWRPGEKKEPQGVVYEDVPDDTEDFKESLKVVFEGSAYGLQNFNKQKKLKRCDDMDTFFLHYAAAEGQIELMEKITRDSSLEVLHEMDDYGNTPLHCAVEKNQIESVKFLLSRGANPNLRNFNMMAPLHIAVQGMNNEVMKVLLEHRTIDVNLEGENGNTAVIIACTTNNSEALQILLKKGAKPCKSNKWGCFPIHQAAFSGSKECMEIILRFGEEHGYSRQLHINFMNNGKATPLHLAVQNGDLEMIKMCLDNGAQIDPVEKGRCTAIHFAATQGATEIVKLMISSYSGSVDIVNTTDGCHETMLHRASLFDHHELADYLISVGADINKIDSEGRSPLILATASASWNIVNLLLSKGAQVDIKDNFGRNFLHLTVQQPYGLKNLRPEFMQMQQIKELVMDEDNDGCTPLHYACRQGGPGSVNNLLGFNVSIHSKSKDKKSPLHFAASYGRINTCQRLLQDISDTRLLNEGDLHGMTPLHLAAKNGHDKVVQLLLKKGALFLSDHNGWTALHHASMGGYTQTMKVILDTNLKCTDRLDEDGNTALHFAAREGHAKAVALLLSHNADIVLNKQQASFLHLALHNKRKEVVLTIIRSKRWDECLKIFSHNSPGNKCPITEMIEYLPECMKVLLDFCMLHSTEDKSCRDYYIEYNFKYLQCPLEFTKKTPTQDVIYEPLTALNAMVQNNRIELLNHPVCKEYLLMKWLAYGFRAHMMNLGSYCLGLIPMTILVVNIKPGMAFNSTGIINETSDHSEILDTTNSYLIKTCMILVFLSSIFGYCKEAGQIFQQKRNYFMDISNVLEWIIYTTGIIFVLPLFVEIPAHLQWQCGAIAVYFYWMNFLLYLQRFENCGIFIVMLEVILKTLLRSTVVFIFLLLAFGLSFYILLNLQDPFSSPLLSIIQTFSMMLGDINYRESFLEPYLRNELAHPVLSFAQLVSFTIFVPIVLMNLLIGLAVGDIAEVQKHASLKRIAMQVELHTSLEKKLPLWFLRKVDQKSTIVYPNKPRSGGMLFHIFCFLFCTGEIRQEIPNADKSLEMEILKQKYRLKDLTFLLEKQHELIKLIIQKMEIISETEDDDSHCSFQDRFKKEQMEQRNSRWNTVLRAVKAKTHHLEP
row,Structure (SMILES),IC50 [nM]
1,"O=C(Nc1ccc(Cl)cc1)O[C@@H](CN1CCCC(Oc2cccc(OC(F)(F)F)c2)C1)C(F)(F)F (stereo partly drawn) [Example 50, (4-Chlorophenyl)-carbamic acid (S)-2,2,2-trifluoro-1-[3-(3-trifluoromethoxyphenoxyl)piperidin-1-ylmethyl]-ethyl ester hydrochloride]",55.1
2,"O=C(Nc1ccc(Cl)cc1)O[C@@H](CN1CCCC(COc2ccc(F)cc2)C1)C(F)(F)F (stereo partly drawn) [Example 51, (4-Chlorophenyl)-carbamic acid (S)-2,2,2-trifluoro-1-[3-(4-fluorophenoxymethyl)-piperidin-1-ylmethyl]-ethyl ester hydrochloride]",178
3,"O=C(Nc1ccc(Cl)cc1)O[C@@H](CN1CCC[C@H](Oc2ccc(Cl)cc2)C1)C(F)(F)F [Example 52a, (4-Chlorophenyl)-carbamic acid (S)-1-[(S)-3-(4-chlorophenoxy)-piperidin-1-ylmethyl]-2,2,2-trifluoroethyl ester hydrochloride]",114
4,"O=C(Nc1ccc(Cl)cc1)O[C@@H](CN1CCC[C@@H](Oc2ccc(Cl)cc2)C1)C(F)(F)F [Example 52b, (4-Chlorophenyl)-carbamic acid (S)-1-[(R)-3-(4-chlorophenoxy)-piperidin-1-ylmethyl]-2,2,2-trifluoroethyl ester hydrochloride]",961
5,"O=C(Nc1ccc(Cl)cc1)O[C@@H](CN1CCCC(c2ccccn2)C1)C(F)(F)F (stereo partly drawn) [Example 53, (4-Chlorophenyl)-carbamic acid (S)-2,2,2-trifluoro-1-(3′,4′,5′,6′-tetrahydro-2′H-[2,3′]bipyridinyl-1′-ylmethyl)-ethyl ester hydrochloride]",1920
6,"N#Cc1ccnc(OC2CCCN(C[C@H](OC(=O)Nc3ccc(Cl)cc3)C(F)(F)F)C2)c1 (stereo partly drawn) [Example 54, (4-Chlorophenyl)-carbamic acid (S)-1-[3-(4-cyanopyridin-2-yloxy)-piperidin-1-ylmethyl]-2,2,2-trifluoroethyl ester hydrochloride]",596
7,"O=C(Nc1ccc(Cl)cc1)O[C@@H](CN1CCCC(OCc2cccnc2)C1)C(F)(F)F (stereo partly drawn) [Example 55, (4-Chlorophenyl)-carbamic acid (S)-2,2,2-trifluoro-1-[3-(pyridin-3-ylmethoxy)-piperidin-1-ylmethyl]-ethyl ester hydrochloride]",803
8,"O=C(Nc1ccc(Cl)cc1)O[C@@H](CN1CCCC(c2cccc(C(F)(F)F)n2)C1)C(F)(F)F (stereo partly drawn) [Example 56, (4-Chlorophenyl)-carbamic acid (S)-2,2,2-trifluoro-1-(6-trifluoromethyl-3′,4′,5′,6′-tetrahydro-2′H-[2,3′]bipyridinyl-1′-ylmethyl)-ethyl ester hydrochloride]",246
9,"O=C(Nc1ccc(Cl)cc1)O[C@@H](CN1CCCC(c2ccc(C(F)(F)F)nc2)C1)C(F)(F)F (stereo partly drawn) [Example 57, (4-Chlorophenyl)-carbamic acid (S)-2,2,2-trifluoro-1-(6′-trifluoromethyl-3,4,5,6-tetrahydro-2H-[3,3′]bipyridinyl-1-ylmethyl)-ethyl ester hydrochloride]",342
10,"O=C(Nc1ccc(Cl)cn1)O[C@@H](CN1CCC[C@H](c2cccc(C(F)(F)F)c2)C1)C(F)(F)F [Example 58, (5-Chloropyridin-2-yl)-carbamic acid (S)-2,2,2-trifluoro-1-[(R)-3-(3-trifluoromethyl-phenyl)-piperidin-1-ylmethyl]-ethyl ester hydrochloride]",174
11,"O=C(Nc1ccc(Cl)cn1)O[C@@H](CN1CCCC(c2cccc(C(F)(F)F)c2)C1)C(F)(F)F (stereo partly drawn) [Example 59, (5-Chloropyridin-2-yl)-carbamic acid (S)-2,2,2-trifluoro-1-[3-(3-trifluoromethylphenyl)-piperidin-1-ylmethyl]-ethyl ester hydrochloride]",270
12,"COc1cccc(C2CCCN(C[C@H](OC(=O)Nc3ccc(Br)cc3)C(F)(F)F)C2)c1 (stereo partly drawn) [Example 60, (4-Bromophenyl)-carbamic acid (S)-2,2,2-trifluoro-1-[3-(3-methoxyphenyl)-piperidin-1-ylmethyl]-ethyl ester hydrochloride]",365

# Further lines, results first:
row,IC50 [nM],Structure (SMILES)
1,273,"COc1cccc(C2CCCN(C[C@H](OC(=O)Nc3ccc(F)cc3)C(F)(F)F)C2)c1 (stereo partly drawn) [Example 61, (4-Fluorophenyl)-carbamic acid (S)-2,2,2-trifluoro-1-[3-(3-methoxyphenyl)-piperidin-1-ylmethyl]-ethyl ester hydrochloride]"
2,1160,"CS(=O)(=O)c1cccc(C2CCCN(C[C@H](OC(=O)Nc3ccc(Cl)cc3)C(F)(F)F)C2)c1 (stereo partly drawn) [Example 62, (4-Chlorophenyl)-carbamic acid (S)-2,2,2-trifluoro-1-[3-(3-methanesulfonylphenyl)-piperidin-1-ylmethyl]-ethyl ester hydrochloride]"
3,2910,"CS(=O)(=O)c1cccc(C2CCCN(C[C@H](OC(=O)Nc3ccc(F)cc3)C(F)(F)F)C2)c1 (stereo partly drawn) [Example 63, (4-Fluorophenyl)-carbamic acid (S)-2,2,2-trifluoro-1-[3-(3-methanesulfonylphenyl)-piperidin-1-ylmethyl]-ethyl ester hydrochloride]"
4,4990,"O=C(Nc1ccc(Cl)cc1)O[C@@H](CN1CCC(Cc2ccccc2)C1)C(F)(F)F (stereo partly drawn) [Example 64, (4-Chlorophenyl)-carbamic acid (S)-1-(3-benzylpyrrolidin-1-ylmethyl)-2,2,2-trifluoro-ethyl ester]"
5,257,"O=C(Nc1ccc(F)c(Cl)c1)O[C@@H](CN1CCCC(c2cccc(C(F)(F)F)c2)C1)C(F)(F)F (stereo partly drawn) [Example 65, (3-Chloro-4-fluoro-phenyl)-carbamic acid (S)-2,2,2-trifluoro-1-[3-(3-trifluoromethyl-phenyl)-piperidin-1-ylmethyl]-ethyl ester]"
6,200,"O=C(Nc1ccc(Cl)c(Cl)c1)O[C@@H](CN1CCCC(c2cccc(C(F)(F)F)c2)C1)C(F)(F)F (stereo partly drawn) [Example 66, (3,4-Dichlorophenyl)-carbamic acid(S)-2,2,2-trifluoro-1-[3-(3-trifluoromethyl-phenyl)piperidin-1-ylmethyl]-ethyl ester]"
7,177,"O=C(Nc1ccc(F)c(F)c1)O[C@@H](CN1CCCC(c2cccc(C(F)(F)F)c2)C1)C(F)(F)F (stereo partly drawn) [Example 67, (3,4-Difluorophenyl)-carbamic acid (S)-2,2,2-trifluoro-1-[3-(3-trifluoromethylphenyl)piperidin-1-ylmethyl]-ethyl ester]"
8,192,"O=C(Nc1ccc(Cl)nc1)O[C@@H](CN1CCCC(c2cccc(C(F)(F)F)c2)C1)C(F)(F)F (stereo partly drawn) [Example 68, (6-Chloropyridin-3-yl)-carbamic acid (S)-2,2,2-trifluoro-1-[3-(3-trifluoromethylphenyl)-piperidin-1-ylmethyl]-ethyl ester]"
